Experimental data: patent publication US6492365B1, “Microsomal triglyceride transfer protein” (Bristol-Myers Squibb Company, priority 1992, dated 2002)
Counter-ions that a name gives are not always drawn.

Legend:
[1] = system: apoAI secretion from HepG2 cells; experiment: ApoAI secretion from HepG2 cells (ELISA of culture media); type: cell-based, human; details: 16-hour incubation, up to the maximum dose of 20 μM
Protocol: (§1) HepG2 cells were treated with compound A at the indicated doses for 16 hours. The concentration in the cell culture media of apoB, apoAI and HSA after the incubation period was measured with the appropriate ELISA assay and normalized to total cell protein. The data shown are expressed as a percentage of the control (DMSO only).
(§2) The human hepatoblastoma cell line, HepG2, was obtained from the American Type Culture Collection (Rockville, Md.; ATCC accession no. 8065). Cultures were maintained at 37° C. in a 5% carbon dioxide atmosphere in T-75 culture flasks with 12 mL of RPMI 1640 medium containing 10% fetal bovine serum (all cell culture media and buffers were obtained from GIBCO Life Technologies, Gaithersburg, Md.). Cells were subcultured 1:4 once a week and fed fresh medium 3 times a week.
(§3) Experiments to measure the effects of compounds A and B on protein secretion were carried out in 48-well plates. HepG2 cells were subcultured 1:2 and allowed to come to confluency at least 24 hours before drug treatment. Before commencement of drug treatment, culture medium was removed, the cells washed once with PBS and 1 mL of fresh medium was added quantitatively. […] The cells were homogenized by trituration with a 1 mL micropipettor, and protein was measured using the Coomassie reagent (Pierce Chemical Co, Rockford, Ill.) as described by the manufacturer. […]

[2] = system: HSA secretion from HepG2 cells; experiment: HSA secretion from HepG2 cells (ELISA of culture media); type: cell-based, human; details: 16-hour incubation, up to the maximum dose of 20 μM
Protocol: as §1, §2, §3

[3] = system: TG secretion from HepG2 cells; experiment: TG secretion from HepG2 cells (3H-glycerol labelling, extraction, TLC); type: cell-based; details: Homo sapiens, 1.25 μM-20 μM, 3H-glycerol labelling for two hours, read-out: IC50 for inhibition of TG secretion
Protocol: HepG2 cells were treated with Compound A at the indicated doses for […], the last two hours of which were in the presence of 5 μCi/mL 3H-glycerol. The concentration of radiolabelled triglycerides in the cell culture media was measured by quantitative extraction, followed by thin layer chromatography analysis and normalization to total cell protein. The data shown are expressed as a percentage of the control (DMSO only).
HepG2 cells were subcultured into 6-well dishes and allowed to come to confluency at least 24 hours before drug treatment. Prior to addition of the drug, culture media were removed, cells washed once with PBS, and 1 mL of fresh medium (RPMI 1640+10% FBS) was added quatitatively. […]
Total lipids were extracted from the media and analyzed as follows. […] Raw data was normalized to cell protein and expressed as percent of DMSO control.
HepG2 cells were treated with doses of compound A ranging from 1.25 μM-20 μM under conditions identical to those utilized for the apoB, apoAl and HSA secretion experiment. The intracellular pool of TG was radiolabelled for two hours with 3H-glycerol in the presence of vehicle or varying doses of compound A. The accumulation of radiolabelled TG in the medium was measured by quantitative extraction, followed by thin layer chromatography analysis and normalization to total cell protein. […]

For `O=C1c2ccccc2CN1C1CCN(CCC(c2ccccc2)c2ccccc2)CC1` [compound A, 2-[1-(3,3-diphenylpropyl)-4-piperdinyl]-2,3-dihydro-3-oxo-1H-isoindole hydrochloride], which “secretion of apoAI” value [1] is on record?
Its value is “unaffected”.

And the “secretion of HSA” value [2]?
The value was “unaffected”.

And the IC50 [3]?
Its IC50 is ~2000 nM.
